Values of other authors as cited in US20240226035A1, “Precision Medicine Approach to Treating Parkinson's Disease with a Monoamine Oxidase Inhibitor, an Antioxidant, or Both” (UNIVERSITY OF NORTH TEXAS HEALTH SCIENCE CENTER AT FORT …, priority 2021, published 2024).

Conditions: DATATOP trial
[1] = deprenyl 10 mg/day, PD patients

For `C#CCN(C)[C@H](C)Cc1ccccc1` [deprenyl], the “effect on reducing PD symptoms” value (deprenyl 10 mg/d, after 14 months, trial discontinued and became open-label) is listed as “positive effects”, the “postponing levodopa-related adverse events or extending life” value [1] is listed as “no benefit” and the “time until disability that warranted initiation of levodopa therapy” value [1] is listed as “delayed time until disability that warranted initiation of levodopa therapy”.
